From patent publication US5770617A, “Terbenzimidazoles useful as antifungal agents” (Rutgers, The State University of New Jersey, priority 1997, dated 1998)

How the values were obtained:
[1] = system: KBV-1 cells (multidrug-resistant variant, overexpress MDR1); conditions: cited from earlier work
[2] = system: yeast cells expressing yeast topoisomerase I; test: Yeast cytotoxicity assay, yeast topoisomerase I; assay type: cell-based, S. cerevisiae
Text: The topoisomerase I-specific in vivo cytotoxicity assay was adapted from A. M. Knab et al., J. Biol. Chem., 268, 22322 (1993). In this system, various topoisomerase I genes or cDNAs cloned into the single-copy yeast plasmid vector (YCpGAL1; Knab et al., cited above) are expressed under the control of the GAL1 promoter in the JN2-134 strain of S. cerevisiae (MAT, rad52::Leu2, trp1, ade2-1, his7, ura3-52, ise1, top1-1, and leu2; M. A. Bjornsti et al., Cancer Res., 49, 6318 (1989)). The topoisomerase I gene or cDNA constructs in the vector are, respectively, the wild-type yeast topoisomerase I gene (YCpGAL-ScTOP1; need cite (1989)), a nonfunctional topoisomerase I gene where the active site tyrosine-727 is mutated to phenylalanine (YCPGAL1-Sctop1Y727; A. M. Knab et al., J. Biol. Chem., 268, 22322 (1993)), and the wild-type human topoisomerase I cDNA (YCp-GAL-hTOP1; M. A. Bjornsti et al., Cancer Res., 49, 6318 (1989)).
To qualitatively test the cytotoxicity and the topoisomerase I specificity of the drugs, yeast cells containing the specified plasmid were grown in dropout medium supplemented with uracil, 2% galactose, and the drug being tested.

[3] = system: CPT-K5 (camptothecin-resistant variant of RPMI 8402); conditions: CPT-K5 versus RPMI 8402; reported by A. Y. Chen et al. 1993; cited from earlier work
[4] = system: human epidermoid carcinoma KB3-1 cell line; test: MTT cytotoxicity assay, KB3-1; assay type: cell-based; conditions: KB 3-1, 96 h, read-out: Cytotoxicity IC50 KB3-1
Experimental: (§1) The cytotoxicity was determined using the as MTT-microtiter plate tetrazolinium cytotoxicity assay (MTA) following the procedures of F. Denizot et al., J. Immunol. Methods, 89, 271 (1986); J. Carmichael et al., Cancer Res, 47, 936 (1987) and T. J. Mosmann et al., Immunol. Methods, 65, 55 (1983). The human lymphoblast RPMI 8402 and its camptothecin-resistant variant cell line, CPT-K5 were provided by Dr. Toshiwo Andoh (Aichi Cancer Center Research Institute, Nagoya, Japan). See, for example, T. Andoh et al., Adv. Pharmacol., 29B, 93 (1994). The cytotoxicity assay was performed using 96-well microtiter plates. Cells were grown in suspension at 37 ° C. in 5% CO2 and maintained by regular passage in RPMI medium supplemented with 10% heat inactivated fetal bovine serum, L-glutamine (2 mM), penicillin (100 U/ml), and streptomycin (0.1 mg/ml). For determination of IC50, cells were exposed continuously with varying concentrations of drug concentrations and MTT assays were performed at the end of the fourth day.
(§2) The drug sensitive human epidermoid carcinoma KB3-1 cell line (S. Aliyama et al., Somatic Cell Mol. Genet., 11, 117 (1985)) and its vinblastine-selected multidrug-resistant variant KBV-1 cells (D. W. Shen et al., Science, 32, 643 (1986)) were provided by Dr. Michael Gottesmann (National Cancer Institute, Bethesda, Md.). […]

[5] = system: KBV-1 cells (multidrug-resistant variant, overexpress MDR1); test: MTT cytotoxicity assay, KBV-1; assay type: cell-based, human
Experimental: as §1, §2

Compound: CCOc1ccc(-c2nc3cc(-c4nc5cc(N6CCN(C)CC6)ccc5[nH]4)ccc3[nH]2)cc1 [Hoechst 33342, 2'-(4-ethoxyphenyl)-5-(4-methyl-1-piperazinyl)-2,5'-bi-1H-benzimidazole]
- fold less cytotoxic to KB V-1 cells than to KB 3-1 ([1]; background, previously reported): approximately 130 fold
- difference of IC50 for KB 3-1 as compared to KB V-1 cells ([1]; reported by A. Y. Chen et al. 1994): approximately two-orders of magnitude

Compound: CC[C@@]1(O)C(=O)OCc2c1cc1n(c2=O)Cc2cc3ccccc3nc2-1 [camptothecin]
- cytotoxicity to yeast cells expressing functional yeast topoisomerase I [2]: camptothecin-sensitive
- resistance of yeast cells expressing yeast topoisomerase I relative to yeast cells expressing human topoisomerase I [2]: at least ten times more resistant
- relative resistance (ratio of IC50 of resistant versus drug sensitive cell line) [3]: 2,500 fold

Compound: c1ccc(-c2ccc3[nH]c(-c4ccc5[nH]c(-c6ccc7[nH]cnc7c6)nc5c4)nc3c2)cc1 [Compound 13, 5-Phenyl-2-[2'(benzimidazol-5"-yl)benzimidazol-5'-yl]benzimidazole]
- IC50 [4]: 0.58 µM
- difference between IC50 values in KB 3-1 and KB V-1 cells [5]: little difference
